Assay results as given in ChEMBL document CHEMBL3885861, “Open TG-GATES”.

Species on record: Rattus norvegicus
Assay: Open TG-GATES - Regimen: Single
Format: toxicity, organism-based, Sprague-Dawley
Set-up: regimen Single, gender Male, age 6 weeks
Settings: in vivo, po, 300 mg/kg, route gavage, dose level Middle; for APTT / Bas / Eos / Fbg / Hb / Ht / Lym / MCH / MCHC / MCV / Mono / Neu / PT / Plat / RBC / Ret / WBC: tissue Blood; for KIDNEY_L / KIDNEY_R / KIDNEY_TOTAL: tissue Kidney; for LIVER: tissue Liver; for A/G / ALP / ALT / AST / BUN / CRE / Ca / Cl / DBIL / GLC / IP / K / LDH / Na / PL / RALB / TBIL / TC / TG / TP / gamma-GTP: tissue Plasma

CC(C)(S)[C@@H](N)C(=O)O [PENICILLAMINE]
TERMINAL_BW (3 h): 203.8 g
APTT (3 h): 16.5 s
Bas (3 h): 0%
Eos (3 h): 0.8%
Fbg (3 h): 315.2 mg/dL
Hb (3 h): 13.2 g/dL
Ht (3 h): 40.7%
Lym (3 h): 75.4%
MCH (3 h): 20.9 pg
MCHC (3 h): 32.3%
MCV (3 h): 64.7 fL
Mono (3 h): 3.8%
Neu (3 h): 19.4%
PT (3 h): 15.1 s
Plat (3 h): 123.1 x10_4/uL
RBC (3 h): 629.8 x10_4/ul
Ret (3 h): 9%
WBC (3 h): 73.3 x10_2/uL
KIDNEY_L (3 h): 0.8 g
KIDNEY_R (3 h): 0.9 g
KIDNEY_TOTAL (3 h): 1.7 g
LIVER (3 h): 8.6 g
A/G (3 h): 0.9
ALP (3 h): 1102.4 IU/L
ALT (3 h): 43.6 IU/L
AST (3 h): 73.4 IU/L
BUN (3 h): 8.4 mg/dL
CRE (3 h): 0.2 mg/dL
Ca (3 h): 10.9 mg/dL
Cl (3 h): 106.2 meq/L
DBIL (3 h): 0.01 mg/dL
GLC (3 h): 175 mg/dL
IP (3 h): 8.4 mg/dL
K (3 h): 4.3 meq/L
LDH (3 h): 57.4 IU/L
Na (3 h): 142.6 meq/L
PL (3 h): 139.2 mg/dL
RALB (3 h): 2.5 g/dL
TBIL (3 h): 0.034 mg/dL
TC (3 h): 73.8 mg/dL
TG (3 h): 87.8 mg/dL
TP (3 h): 5.3 g/dL
gamma-GTP (3 h): 1 IU/L
TERMINAL_BW (6 h): 200.3 g
APTT (6 h): 14.8 s
Bas (6 h): 0%
Eos (6 h): 0.8%
Fbg (6 h): 313.6 mg/dL
Hb (6 h): 13.4 g/dL
Ht (6 h): 41.5%
Lym (6 h): 74.6%
MCH (6 h): 20.4 pg
MCHC (6 h): 32.3%
MCV (6 h): 63.4 fL
Mono (6 h): 3%
Neu (6 h): 20.6%
PT (6 h): 14.6 s
Plat (6 h): 121.5 x10_4/uL
RBC (6 h): 655.4 x10_4/ul
Ret (6 h): 8.7%
WBC (6 h): 87.9 x10_2/uL
KIDNEY_L (6 h): 0.9 g
KIDNEY_R (6 h): 0.9 g
KIDNEY_TOTAL (6 h): 1.8 g
LIVER (6 h): 8.2 g
A/G (6 h): 0.9
ALP (6 h): 1066.8 IU/L
ALT (6 h): 36.6 IU/L
AST (6 h): 72 IU/L
BUN (6 h): 8.2 mg/dL
CRE (6 h): 0.2 mg/dL
Ca (6 h): 10.7 mg/dL
Cl (6 h): 106.2 meq/L
DBIL (6 h): 0.012 mg/dL
GLC (6 h): 182.8 mg/dL
IP (6 h): 9.5 mg/dL
K (6 h): 4.4 meq/L
LDH (6 h): 60.8 IU/L
Na (6 h): 142.8 meq/L
PL (6 h): 139.6 mg/dL
RALB (6 h): 2.5 g/dL
TBIL (6 h): 0.038 mg/dL
TC (6 h): 79.2 mg/dL
TG (6 h): 47.4 mg/dL
TP (6 h): 5.2 g/dL
gamma-GTP (6 h): 1 IU/L
TERMINAL_BW (9 h): 198.7 g
APTT (9 h): 16.2 s
Bas (9 h): 0%
Eos (9 h): 0.8%
Fbg (9 h): 304.8 mg/dL
Hb (9 h): 13.2 g/dL
Ht (9 h): 40.9%
Lym (9 h): 76.8%
MCH (9 h): 20.8 pg
MCHC (9 h): 32.2%
MCV (9 h): 64.4 fL
Mono (9 h): 3%
Neu (9 h): 18.6%
PT (9 h): 15.2 s
Plat (9 h): 120.8 x10_4/uL
RBC (9 h): 634.2 x10_4/ul
Ret (9 h): 8.9%
WBC (9 h): 73.6 x10_2/uL
KIDNEY_L (9 h): 0.9 g
KIDNEY_R (9 h): 0.9 g
KIDNEY_TOTAL (9 h): 1.7 g
LIVER (9 h): 7.7 g
A/G (9 h): 0.9
ALP (9 h): 1040.2 IU/L
ALT (9 h): 32.8 IU/L
AST (9 h): 67 IU/L
BUN (9 h): 8 mg/dL
CRE (9 h): 0.2 mg/dL
Ca (9 h): 10.6 mg/dL
Cl (9 h): 107.2 meq/L
DBIL (9 h): 0.01 mg/dL
GLC (9 h): 175.4 mg/dL
IP (9 h): 9.9 mg/dL
K (9 h): 4 meq/L
LDH (9 h): 58 IU/L
Na (9 h): 142.8 meq/L
PL (9 h): 128.8 mg/dL
RALB (9 h): 2.5 g/dL
TBIL (9 h): 0.042 mg/dL
TC (9 h): 73.6 mg/dL
TG (9 h): 39.4 mg/dL
TP (9 h): 5.2 g/dL
gamma-GTP (9 h): 1 IU/L
TERMINAL_BW (24 h): 216.3 g
APTT (24 h): 15.1 s
Bas (24 h): 0.2%
Eos (24 h): 1%
Fbg (24 h): 290.8 mg/dL
Hb (24 h): 13.5 g/dL
Ht (24 h): 41.5%
Lym (24 h): 82.2%
MCH (24 h): 21.1 pg
MCHC (24 h): 32.5%
MCV (24 h): 64.7 fL
Mono (24 h): 3%
Neu (24 h): 12.6%
PT (24 h): 14 s
Plat (24 h): 123.4 x10_4/uL
RBC (24 h): 640.6 x10_4/ul
Ret (24 h): 8.3%
WBC (24 h): 101.5 x10_2/uL
KIDNEY_L (24 h): 0.9 g
KIDNEY_R (24 h): 0.9 g
KIDNEY_TOTAL (24 h): 1.8 g
LIVER (24 h): 10.1 g
A/G (24 h): 0.9
ALP (24 h): 1515 IU/L
ALT (24 h): 39.2 IU/L
AST (24 h): 65.8 IU/L
BUN (24 h): 13.4 mg/dL
CRE (24 h): 0.2 mg/dL
Ca (24 h): 11.1 mg/dL
Cl (24 h): 105.6 meq/L
DBIL (24 h): 0.012 mg/dL
GLC (24 h): 172.4 mg/dL
IP (24 h): 8.2 mg/dL
K (24 h): 4.1 meq/L
LDH (24 h): 79.4 IU/L
Na (24 h): 144.2 meq/L
PL (24 h): 164.8 mg/dL
RALB (24 h): 2.6 g/dL
TBIL (24 h): 0.028 mg/dL
TC (24 h): 86.6 mg/dL
TG (24 h): 126 mg/dL
TP (24 h): 5.5 g/dL
gamma-GTP (24 h): 1.2 IU/L
